In patent US20160106102A1, “KNOWN AND NEW HETEROCYCLIC COMPOUNDS AS PEST CONTROL AGENTS” (BAYER CROPSCIENCE AKTIENGESELLSCHAFT, priority 2013, published 2016):

Assay: log P determination by LC-MS in the acidic range
Type: physicochemical
Details: LC-MS in the acidic range
Excerpt: The LC-MS determination in the acidic range is effected at pH 2.7 using 0.1% aqueous formic acid and acetonitrile (contains 0.1% formic acid) as eluents, linear gradient from 10% acetonitrile to 95% acetonitrile. Alternatively, the determination is effected in the acidic range at pH 2.3 using 0.1% aqueous phosphoric acid and acetonitrile as eluents; linear gradient from 10% acetonitrile to 95% acetonitrile.

Point of comparison: `Cc1cc(F)c(Cn2nc(NC(=O)c3cccnc3)cc2C)cc1SCC(F)(F)F` [Compound I-1-337], “log P (acid)” value 2.89. Against it:
- CSc1c(Cl)c(NC(=O)c2cccnc2)nn1C [Compound I-1-201] — lower, 1.25
- Cc1cc(NC(=O)c2cccnc2)nn1-c1ccc(Cl)c(Cl)c1 [Compound I-1-206] — lower, 2.59
- Cn1nc(NC(=O)c2cncc(F)c2)cc1C(F)F [Compound I-1-222] — lower, 1.51
- Cc1cc(NC(=O)c2cccnc2)nn1-c1ccccn1 [Compound I-1-230] — lower, 2.19
- Cc1cc(NC(=O)c2ccnnc2)nn1Cn1cccn1 [Compound I-1-240] — lower, 0.91
- Cc1cc(C)nc(-n2nc(NC(=O)c3ccnnc3)cc2C)n1 [Compound I-1-248] — lower, 1.53
- Cc1cc(NC(=O)c2ccnnc2)nn1CC(F)(F)F [Compound I-1-250] — lower, 1.2
- Cc1cc(C)nc(Cn2nc(NC(=O)c3ccnnc3)cc2C)n1 [Compound I-1-251] — lower, 1.14
- COc1cc(OC)nc(Cn2nc(NC(=O)c3ccnnc3)cc2C)n1 [Compound I-1-252] — lower, 1.5
- Cc1ccnc(Cn2nc(NC(=O)c3ccnnc3)cc2C)n1 [Compound I-1-253] — lower, 0.88
- Cc1cc(NC(=O)c2ccnnc2)nn1Cc1ncccc1Cl [Compound I-1-254] — lower, 1.33
- Cc1cc(NC(=O)c2ccnnc2)nn1Cn1ccc(C(F)(F)F)n1 [Compound I-1-255] — lower, 1.73
- Cc1cnn(Cn2nc(NC(=O)c3ccnnc3)cc2C)c1 [Compound I-1-256] — lower, 1.1
- CCCNS(=O)(=O)n1nc(NC(=O)c2cccnc2)cc1C [Compound I-1-258] — lower, 1.07
- COc1ccc(-n2ccc(NC(=O)c3cccnc3)n2)cc1 [Compound I-1-271] — lower, 1.6
- CCOC(=O)c1cn(Cc2ccccc2)nc1NC(=O)c1cccnc1 [Compound I-1-272] — lower, 0.79
- O=C(Nc1ccn(-c2nccs2)n1)c1cccnc1 [Compound I-1-273] — lower, 1.16
- Cn1nc(NC(=O)c2cccnc2)c(Cl)c1OC(F)F [Compound I-1-275] — lower, 1.19
- Cc1nn(-c2ccccc2)nc1Cn1nc(NC(=O)c2cccnc2)cc1C [Compound I-1-303] — lower, 2.33
- Cc1cc(N(Cc2ccc3nsnc3c2)C(=O)c2cccnc2)nn1Cc1ccc2nsnc2c1 [Compound I-1-343] — lower, 2.57

Same assay, conditions: Table 2, compounds of the formula (I-2); acidic range pH 2.7 or pH 2.3

Point of comparison: `CN(C)C(=O)n1cnc(NC(=O)c2cccnc2)n1` [Compound I-2-9], “log P (acid)” value 0.47. Against it:
- Cc1nc(NC(=O)c2cccnc2)nn1Cc1ncccn1 [Compound I-2-2] — lower, −0.05
- O=C(Nc1ncn(-c2c(Cl)cc(S(=O)(=O)C(F)(F)F)cc2Cl)n1)c1cccnc1 [Compound I-2-3] — higher, 2.02
- O=C(Nc1ncn(-c2ccccc2)n1)c1cccnc1 [Compound I-2-5] — higher, 0.98
- O=C(Nc1ncn(Cc2c(Cl)cccc2Cl)n1)c1cccnc1 [Compound I-2-8] — higher, 1.39
- CCOc1nc(OCC)nc(-n2cnc(NC(=O)c3cccnc3)n2)n1 [Compound I-2-10] — higher, 1.41
- COc1ccnc(-n2cnc(NC(=O)c3cccnc3)n2)n1 [Compound I-2-11] — higher, 0.70
- CCn1nc(NC(=O)c2cccnc2)nc1SC [Compound I-2-12] — higher, 0.71
- O=C(Nc1ncn(Cc2ccc(Cl)cc2)n1)c1cccnc1 [Compound I-2-13] — higher, 1.36
- O=C(Nc1ncn(-c2ncccc2Br)n1)c1cccnc1 [Compound I-2-15] — higher, 0.67
- Cc1nc(NC(=O)c2cccnc2)nn1C(C)C [Compound I-2-20] — within 0.2 log units, 0.44
- CCCn1cnc(NC(=O)c2cccnc2)n1 [Compound I-2-21] — within 0.2 log units, 0.29
- COc1cc(OC)nc(-n2cnc(NC(=O)c3cccnc3)n2)n1 [Compound I-2-24] — higher, 1.11
- Cc1nc(-n2cnc(NC(=O)c3cccnc3)n2)nc(C)c1C [Compound I-2-25] — higher, 1.07
- O=C(Nc1nc(Cl)n(-c2ccccc2)n1)c1cccnc1 [Compound I-2-27] — higher, 1.58
- COc1nc(NC(=O)c2cccnc2)nn1-c1ccccc1 [Compound I-2-28] — higher, 1.23

Same assay, conditions: Table 3; HPLC on reversed-phase column (C 18), 55° C., acidic range (pH 2.7 or pH 2.3)

Point of comparison: `Cc1nn(-c2cccc(C(F)(F)F)c2)nc1NC(=O)c1cccnc1` [Compound I-3-18], “log P (acid)” value 2.58. Against it:
- O=C(Nc1nn(-c2ccccc2)nc1Br)c1cccnc1 [Compound I-3-3] — lower, 2.09
- O=C(Nc1cnn(-c2ccc(Cl)cc2)n1)c1cccnc1 [Compound I-3-4] — within 0.2 log units, 2.43
- O=C(Nc1nn(-c2ccc(Cl)cc2Cl)nc1C(F)(F)F)c1cccnc1 [Compound I-3-8] — higher, 2.97
- Cc1nn(-c2ccccc2)nc1NC(=O)c1cccnc1 [Compound I-3-11] — lower, 1.82
- O=C(Nc1nn(-c2ccccc2)nc1C(F)(F)F)c1cccnc1 [Compound I-3-12] — within 0.2 log units, 2.44
- O=C(Nc1nn(-c2ccccc2Cl)nc1Cl)c1cccnc1 [Compound I-3-13] — lower, 2.04
- O=C(Nc1cnn(-c2ncc(Cl)cc2Cl)n1)c1cccnc1 [Compound I-3-15] — lower, 1.83
- Cc1nn(-c2ncc(Cl)cc2Cl)nc1NC(=O)c1cccnc1 [Compound I-3-17] — lower, 1.74
- Cc1nn(-c2ccc(Cl)cc2Cl)nc1NC(=O)c1cccnc1 [Compound I-3-19] — lower, 2.24
- O=C(Nc1nn(-c2ccc(Cl)cc2)nc1C(F)(F)F)c1cccnc1 [Compound I-3-20] — higher, 2.93
- O=C(Nc1nn(-c2ncccc2Cl)nc1Cl)c1cccnc1 [Compound I-3-21] — lower, 1.51
- Cc1nn(-c2cc(Cl)ccc2Cl)nc1NC(=O)c1cccnc1 [Compound I-3-22] — lower, 2.26
- Cc1nn(-c2ccccc2Cl)nc1NC(=O)c1cccnc1 [Compound I-3-23] — lower, 1.71
- O=C(Nc1cnn(-c2c(F)cccc2F)n1)c1cccnc1 [Compound I-3-24] — lower, 1.67

Same assay, conditions: Table 4; HPLC on reversed-phase column (C 18), 55° C., acidic range (pH 2.7 or pH 2.3)

Point of comparison: `O=C(Nc1nnn(Cc2ccccc2)n1)c1cccnc1` [Compound I-4-10], “log P (acid)” value 1.38. Against it:
- COc1cc(OC)nc(-n2nnc(NC(=O)c3cccnc3)n2)n1 [Compound I-4-4] — within 0.2 log units, 1.35
- CCOC(=O)Cn1nnc(NC(=O)c2cccnc2)n1 [Compound I-4-5] — lower, 0.71
- O=C(Cn1nnc(NC(=O)c2cccnc2)n1)NCc1cccc2ccccc12 [Compound I-4-7] — higher, 1.71
- CCCn1nnc(NC(=O)c2cccnc2)n1 [Compound I-4-9] — lower, 0.76
- CCCCNC(=O)Cn1nnc(NC(=O)c2cccnc2)n1 [Compound I-4-11] — lower, 0.97
